{
  "source": "patent US8318804B2",
  "about": "(priority 2007, dated 2012)",
  "key": {"A/WY/03/2003": {"test_system": "A/WY/03/2003", "type": "cell-based, influenza A virus in MDCK cells"}, "[1]": {"test_system": "influenza virus strain A/Wyoming/03/2003 (H3N2)", "type": "cell-based, influenza A virus in MDCK cells"}, "influenza virus": {"test_system": "influenza virus", "type": "cell-based, influenza virus in MDCK cells"}, "[2]": {"test_system": "A/WY/03/2003 (H3N2) influenza virus", "type": "cell-based, influenza A virus in MDCK cells"}},
  "data": [
    {"smiles": "CCOC(=O)C([C@H]1C=C[C@@H](O)C1)[N+](=O)[O-]", "note": "(stereo partly drawn) [EHCN, ethyl-(2R/S, 1′R,4′S)-2-(4′-hydroxy-2′-cyclopenten-1′-yl)-2-nitroacetate]", "values": [
      {"measurement": "EC50 against A/WY/03/2003", "setting": "A/WY/03/2003", "value": 4.5, "unit": "µg/mL"},
      {"measurement": "cytopathic effect (CPE) observed under the microscope", "setting": "[1]", "value": "did not present complete CPE"},
      {"measurement": "plaque formation / antiviral activity in plaque reduction assay", "setting": "influenza virus", "value": "fewer and smaller plaques than the untreated wells"},
      {"measurement": "protection (cell viability assay)", "setting": "[2]", "value": 75, "unit": "%"}
    ]}
  ]
}
